Patent US7205314B2, “Compounds for the treatment of dementia related diseases” (AstraZeneca AB, priority 2001, dated 2007)

COCCOc1ccc2c(C3C(=O)Nc4ccc(C#N)cc43)nccc2c1 (stereo not shown) [Example 3, 3-[6-(2-Methoxyethoxy)isoquinolin-1-yl]-2-oxo-2,3-dihydro-1H-indole-5-carbonitrile]
melting point: 214 to 219 °C
